Test results from ChEMBL document CHEMBL1134742, “Synthesis and structure-activity relationships of thiotetronic acid analogues of thiolactomycin” (2001).
In brackets after ≈: the same amount, converted by molar mass.

Key:
Staphylococcus aureus = test: Antibacterial activity against Staphylococcus aureus; assay type: functional
Pasteurella multocida = test: Antibacterial activity against Pasteurella multocida; assay type: functional

SMILES	MIC (Staphylococcus aureus) [µg/mL]	MIC (Pasteurella multocida) [µg/mL]
CC(=O)C1=C(O)S/C(=C\c2ccc(F)cc2)C1=O	> 200	3.13 (≈ 11.8 µM)
CC(=O)C1=C(O)S/C(=C\c2cccs2)C1=O	> 200	1.56 (≈ 6.18 µM)
CC(=O)C1=C(O)S/C(=C\c2ccccn2)C1=O	> 200	100 (≈ 404 µM)
CC1=C(O)S[C@](C)(/C=C(\C)CO)C1=O	> 100	> 100
CC(=O)C1=C(O)SC(C/C=C(\C)CC/C=C(\C)CCC=C(C)C)C1=O (stereo not given)	1.56 (≈ 4.3 µM)	0.2 (≈ 0.552 µM)
C=C/C(C)=C\[C@@]1(C)SC(O)=C(C)C1=O	> 100	0.2 (≈ 0.951 µM)
CC(=O)C1=C(O)S/C(=C\N(C)C)C1=O	> 200	> 200
CC(=O)C1=C(O)S/C(=C\c2ccc(C(F)(F)F)cc2)C1=O	3.13 (≈ 9.96 µM)	3.13 (≈ 9.96 µM)
CCCCCC(=O)/C=C/C(C)=C/[C@@]1(C)SC(O)=C(C)C1=O	> 100	> 100
CC(=O)C1=C(O)SCC1=O	> 200	> 200
CC1=C(O)S[C@](C)(/C=C(C)/C=N/OCc2ccccc2)C1=O	> 100	> 100
CC1=C(O)S[C@](C)(/C=C(\C)C#N)C1=O	> 100	> 100
CC1=C(O)S[C@](C)(/C=C(C)/C=C/C#N)C1=O	> 100	> 100
CC(=O)OC1=C(C)C(=O)S[C@]1(C)/C=C(\C)C=O	> 100	> 100
CC(=O)C1=C(O)S/C(=C\c2ccc3c(c2)OCO3)C1=O	> 200	> 200
CC1=C(O)S[C@](C)(/C=C(\C)C=C(Br)Br)C1=O	> 100	> 100
CC(=O)C1=C(O)S/C(=C\c2ccccc2)C1=O	> 200	> 200
CC(=O)C1=C(O)S/C(=C\c2cccc(Oc3ccc(Cl)c(Cl)c3)c2)C1=O	1.56 (≈ 3.83 µM)	0.2 (≈ 0.491 µM)
CC(=O)C1=C(O)S/C(=C\c2cccc(Oc3cccc(C(F)(F)F)c3)c2)C1=O	0.78 (≈ 1.92 µM)	3.13 (≈ 7.7 µM)
CC(=O)C1=C(O)C(C)(Cc2ccc(F)cc2)SC1=O (stereo not given)	> 200	> 200

SMILES	MIC (Staphylococcus aureus) [µg/mL]	MIC (Pasteurella multocida) [µg/mL]
CC(=O)C1=C(O)S/C(=C\c2cccc(F)c2)C1=O	50 (≈ 189 µM)	6.25 (≈ 23.6 µM)
CC(=O)C1=C(O)S/C(=C\c2ccc(C#N)cc2)C1=O	3.13 (≈ 11.5 µM)	> 200
CC(=O)C1=C(O)S/C(=C\c2ccc(Cl)cc2Cl)C1=O	3.13 (≈ 9.93 µM)	3.13 (≈ 9.93 µM)
CC(=O)C1=C(O)SC(C)C1=O (stereo not given)	50 (≈ 290 µM)	6.25 (≈ 36.3 µM)
CCOC(=O)/C=C/C=C/C(C)=C/[C@@]1(C)SC(O)=C(C)C1=O	> 100	> 100
CC(=O)C1=C(O)SC(C)(C/C=C(/C)CCC=C(C)C)C1=O (stereo not given)	> 200	100 (≈ 324 µM)
CCCNC/C(C)=C/[C@@]1(C)SC(O)=C(C)C1=O	> 100	> 100
CC(=O)C1=C(O)SC(COC(=O)Cc2ccccc2)C1=O (stereo not given)	3.13 (≈ 10.2 µM)	> 200
CC(=O)C1=C(O)SC(Cc2cccc(C(F)(F)F)c2)C1=O (stereo not given)	3.13 (≈ 9.9 µM)	3.13 (≈ 9.9 µM)
CC(=O)C1=C(O)C(C)(C/C=C/c2ccccc2)SC1=O (stereo not given)	3.13 (≈ 10.9 µM)	> 200
CC(=O)C1=C(O)SC(C)(C/C=C(\C)CC/C=C(\C)CCC=C(C)C)C1=O (stereo not given)	> 200	1.56 (≈ 4.14 µM)
CC(=O)C1=C(O)S/C(=C\c2cccc(OCc3ccccc3)c2)C1=O	3.13 (≈ 8.88 µM)	> 200
CC(=O)C1=C(O)SC(C/C=C/c2ccccc2)C1=O (stereo not given)	3.13 (≈ 11.4 µM)	3.13 (≈ 11.4 µM)
CC(=O)C1=C(O)SC(C/C=C(/C)CC/C=C(\C)CCC=C(C)C)(C/C=C(/C)CC/C=C(\C)CCC=C(C)C)C1=O	> 200	> 200
CC(=O)C1=C(O)SC(CCC(C)CCCC(C)C)C1=O (stereo not given)	0.78 (≈ 2.61 µM)	3.13 (≈ 10.5 µM)
CC(=O)C1=C(O)S/C(=C\c2ccc(O)cc2)C1=O	> 200	> 200
CC1=C(O)S[C@](C)(/C=C(C)/C=C/c2ccccc2)C1=O	> 100	> 100
C=C/C(C)=C/[C@@]1(C)SC(=O)C(C)=C1OC(C)=O	> 100	> 100
CC(=O)/C=C/C(C)=C/[C@@]1(C)SC(O)=C(C)C1=O	> 100	> 100
CCOC(=O)/C=C/C(C)=C/[C@@]1(C)SC(O)=C(C)C1=O	> 100	> 100
